According to patent US11214594B2, “Antimicrobial peptide having synergistic antibacterial effect with antibiotics on multidrug resistant bacteria, and use thereof” (priority 2016, dated 2022):
Converted amounts (≈) assume the structure as drawn. Like-named read-outs stand apart in the source and are kept apart here. Where a SMILES comes first, the peptide text is derived from it. [ ]: non-standard residue; d: D form.

Columns and labels:
[1] = system: P. aeruginosa; experiment: microbe, parasite or virus in culture; type: cell-based, Pseudomonas aeruginosa
Outline: (§1)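 Peptides were serially diluted twofold in Mueller-Hinton medium and combined 1:1 with bacterial suspensions prepared at 2×10^6 CFU. Readout was the minimal inhibitory concentration, i.e. the lowest concentration with no growth.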

[2] = system: B. subtilis; experiment: microbe, parasite or virus in culture; type: cell-based, Bacillus subtilis
Outline: as §1

[3] = system: MRSA 3126; type: cell-based, Staphylococcus aureus; settings: 3126
Outline: as §1

[4] = system: MRSA 3114; type: cell-based, Staphylococcus aureus; settings: 3114
Outline: as §1

[5] = system: MDRAB 12035; experiment: MIC of antibiotic during combined treatment with antimicrobial peptide; type: cell-based, Acinetobacter baumannii
Outline: (§2)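 Antibiotic MIC came from antibiotic dilutions added to bacteria (2×10^6 CFU/ml, MH medium) already combined with peptide serially diluted 2:1 from its own MIC. Swapping the roles of the two agents gave the peptide MIC.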

[6] = system: MDRAB 12035; experiment: microbe, parasite or virus in culture; type: cell-based, Acinetobacter baumannii
Outline: as §1

[7] = system: A. baumannii; experiment: microbe, parasite or virus in culture; type: cell-based, Acinetobacter baumannii
Outline: as §1

[8] = system: MDREC 1238; type: cell-based, Escherichia coli
Outline: as §1

[9] = system: S. typhimurium; experiment: microbe, parasite or virus in culture; type: cell-based, Salmonella typhimurium
Outline: as §1

[10] = system: S. aureus; experiment: microbe, parasite or virus in culture; type: cell-based, Staphylococcus aureus
Outline: as §1

[11] = system: MDRST 8007; experiment: Minimal inhibitory concentration (MIC), single agent; type: cell-based, Salmonella typhimurium; settings: agent alone
Outline: as §1

[12] = system: S. epidermidis; experiment: microbe, parasite or virus in culture; type: cell-based, Staphylococcus epidermidis
Outline: as §1

[13] = system: E. coli; type: cell-based, Escherichia coli; settings: E. coli
Outline: as §2

[14] = system: MDREC 1229; type: cell-based, Escherichia coli
Outline: as §2

[15] = system: MDREC 1229; experiment: MIC of antibiotic during combined treatment with antimicrobial peptide; type: cell-based, Escherichia coli
Outline: as §2

[16] = system: MDRAB 12036; type: cell-based, Acinetobacter baumannii
Outline: as §1

[17] = system: MDRPA 2002; type: cell-based, Pseudomonas aeruginosa
Outline: as §1

[18] = system: MDRPA 2003; type: cell-based, Pseudomonas aeruginosa
Outline: as §1

[19] = system: MDRAB 12035; experiment: MIC of antimicrobial peptide during combined treatment with antibiotic; type: cell-based, Acinetobacter baumannii
Outline: as §2

[20] = system: A. baumannii; experiment: as above; type: cell-based, Acinetobacter baumannii
Outline: as §2

[21] = peptide treatment concentration 1 μg/ml
[22] = peptide treatment concentration 2 μg/ml
[23] = peptide treatment concentration 4 μg/ml
[24] = peptide treatment concentration 6 μg/ml
[25] = peptide treatment concentration 8 μg/ml
[26] = peptide treatment concentration 16 μg/ml
[27] = peptide treatment concentration 32 μg/ml
[28] = peptide treatment concentration 64 μg/ml
[29] = linezolid 64 μg/ml (Conc./MIC 1/8)
[30] = linezolid 512 μg/ml (Conc./MIC 1)
[31] = vancomycin 512 μg/ml (Conc./MIC 1/2)
[32] = vancomycin 1024 μg/ml (Conc./MIC 1)
[33] = erythromycin 4 μg/ml (Conc./MIC 1/8)
[34] = erythromycin 8 μg/ml (Conc./MIC 1/4)
[35] = erythromycin 16 μg/ml (Conc./MIC 1/2)
[36] = erythromycin 32 μg/ml (Conc./MIC 1)

CC[C@H](C)[C@H](NC(=O)[C@H](CCCCN)NC(=O)[C@H](Cc1c[nH]c2ccccc12)NC(=O)[C@@H](N)CCCNC(=N)N)C(=O)N[C@@H](Cc1ccccc1)C(=O)N[C@@H](CCCCN)C(=O)N[C@@H](CCCCN)C(=O)N[C@H](C(=O)N[C@H](CCCCN)C(=O)N[C@@H](CCCCN)C(=O)N[C@@H](CC(C)C)C(=O)N[C@@H](CC(C)C)C(=O)N[C@@H](Cc1c[nH]cn1)C(=O)N[C@@H](CCC(=O)O)C(=O)N[C@@H](Cc1ccccc1)C(=O)N[C@@H](CCCCN)C(=O)N[C@@H](CCCCN)C(=O)N[C@@H](Cc1ccccc1)C(N)=O)[C@@H](C)CC [PapMA-19, RWK IFK KIk KLL HEF KKF-NH2] (H-RWKIFKKI[dK]KLLHEFKKF-NH2; N-terminus assumed)
Minimal inhibitory concentration MIC [1]: 64 µg/mL (≈ 26.5 µM)
Minimal inhibitory concentration MIC [2]: >128 µg/mL
Minimal inhibitory concentration MIC [3]: >128 µg/mL
Minimal inhibitory concentration MIC [4]: >128 µg/mL
Erythromycin MIC during combined treatment with peptide [5, 21]: 32 µg/mL
Linezolid MIC during combined treatment with peptide [5, 21]: >128 µg/mL
Vancomycin MIC during combined treatment with peptide [5, 21]: >128 µg/mL
Erythromycin MIC during combined treatment with peptide [5, 22]: 16 µg/mL
Linezolid MIC during combined treatment with peptide [5, 22]: 128 µg/mL
Vancomycin MIC during combined treatment with peptide [5, 22]: 128 µg/mL
Erythromycin MIC during combined treatment with peptide [5, 23]: 8 µg/mL
Linezolid MIC during combined treatment with peptide [5, 23]: 64 µg/mL
Vancomycin MIC during combined treatment with peptide [5, 23]: 64 µg/mL
Erythromycin MIC during combined treatment with peptide [5, 24]: 2 µg/mL
Linezolid MIC during combined treatment with peptide [5, 24]: 16 µg/mL
Vancomycin MIC during combined treatment with peptide [5, 24]: 32 µg/mL
Erythromycin MIC during combined treatment with peptide [5, 25]: 0.5 µg/mL
Linezolid MIC during combined treatment with peptide [5, 25]: 8 µg/mL
Vancomycin MIC during combined treatment with peptide [5, 25]: 16 µg/mL
Erythromycin MIC during combined treatment with peptide [5, 26]: 0.125 µg/mL
Linezolid MIC during combined treatment with peptide [5, 26]: 4 µg/mL
Vancomycin MIC during combined treatment with peptide [5, 26]: 8 µg/mL
Erythromycin MIC during combined treatment with peptide [5, 27]: 0 µg/mL
Linezolid MIC during combined treatment with peptide [5, 27]: 0 µg/mL
Vancomycin MIC during combined treatment with peptide [5, 27]: 0 µg/mL
Erythromycin MIC during combined treatment with peptide [5, 28]: 0 µg/mL
Linezolid MIC during combined treatment with peptide [5, 28]: 0 µg/mL
Vancomycin MIC during combined treatment with peptide [5, 28]: 0 µg/mL
Minimal inhibitory concentration MIC [6]: 32 µg/mL (≈ 13.2 µM)
Peptide MIC, peptide alone [6]: 32 µg/mL
Minimal inhibitory concentration MIC [7]: 16 µg/mL (≈ 6.62 µM)
Peptide MIC, peptide alone [7]: 16 µg/mL
Antibacterial activity relative to PapMA-1 ([7]; A. baumannii and S. typhimurium): at least twice as high
Minimal inhibitory concentration MIC [8]: 32 µg/mL (≈ 13.2 µM)
Minimal inhibitory concentration MIC [9]: 32 µg/mL (≈ 13.2 µM)
Minimal inhibitory concentration MIC [10]: >128 µg/mL
Minimal inhibitory concentration MIC [11]: 64 µg/mL (≈ 26.5 µM)
Minimal inhibitory concentration MIC [12]: >128 µg/mL
Peptide MIC ([13]; with Erythromycin […] (Conc./MIC 1)): 0 µg/mL
Peptide MIC ([13]; with Linezolid […] (Conc./MIC 1)): 0 µg/mL
Peptide MIC ([13]; with Vancomycin 1024 μg/ml (Conc./MIC 1)): 0 µg/mL
Peptide MIC during treatment with antibiotic ([14]; erythromycin 32 μg/ml (Conc./MIC 1/8)): 2 µg/mL
Peptide MIC during treatment with antibiotic ([14]; erythromycin 64 μg/ml (Conc./MIC 1/4)): 2 µg/mL
Peptide MIC during treatment with antibiotic ([14]; erythromycin […] (Conc./MIC 1)): 0 µg/mL
Peptide MIC during treatment with antibiotic ([14]; erythromycin […] (Conc./MIC 1/2)): 1 µg/mL
Peptide MIC during treatment with antibiotic [14, 29]: 4 µg/mL
Peptide MIC during treatment with antibiotic [14, 30]: 0 µg/mL
Peptide MIC during treatment with antibiotic ([14]; linezolid […] (Conc./MIC 1/2)): 1 µg/mL
Peptide MIC during treatment with antibiotic ([14]; linezolid […] (Conc./MIC 1/4)): 2 µg/mL
Peptide MIC during treatment with antibiotic [14, 31]: 2 µg/mL
Peptide MIC during treatment with antibiotic [14, 32]: 1 µg/mL
Peptide MIC during treatment with antibiotic ([14]; vancomycin […] (Conc./MIC 1/4)): 4 µg/mL
Peptide MIC during treatment with antibiotic ([14]; vancomycin […] (Conc./MIC 1/8)): 4 µg/mL
Antibiotic MIC, Erythromycin [15, 21]: 128 µg/mL
Antibiotic MIC, Linezolid [15, 21]: >128 µg/mL
Antibiotic MIC, Vancomycin [15, 21]: >128 µg/mL
Antibiotic MIC, Erythromycin [15, 22]: 32 µg/mL
Antibiotic MIC, Linezolid [15, 22]: 128 µg/mL
Antibiotic MIC, Vancomycin [15, 22]: 128 µg/mL
Antibiotic MIC, Erythromycin [15, 23]: 8 µg/mL
Antibiotic MIC, Linezolid [15, 23]: 32 µg/mL
Antibiotic MIC, Vancomycin [15, 23]: 64 µg/mL
Antibiotic MIC, Erythromycin [15, 24]: 2 µg/mL
Antibiotic MIC, Linezolid [15, 24]: 16 µg/mL
Antibiotic MIC, Vancomycin [15, 24]: 8 µg/mL
Antibiotic MIC, Erythromycin [15, 25]: 1 µg/mL
Antibiotic MIC, Linezolid [15, 25]: 16 µg/mL
Antibiotic MIC, Vancomycin [15, 25]: 8 µg/mL
Antibiotic MIC, Erythromycin [15, 26]: 0.5 µg/mL
Antibiotic MIC, Linezolid [15, 26]: 4 µg/mL
Antibiotic MIC, Vancomycin [15, 26]: 4 µg/mL
Antibiotic MIC, Erythromycin [15, 27]: 0 µg/mL
Antibiotic MIC, Linezolid [15, 27]: 0 µg/mL
Antibiotic MIC, Vancomycin [15, 27]: 0 µg/mL
Antibiotic MIC, Erythromycin [15, 28]: 0 µg/mL
Antibiotic MIC, Linezolid [15, 28]: 0 µg/mL
Antibiotic MIC, Vancomycin [15, 28]: 0 µg/mL
Minimal inhibitory concentration MIC [16]: 32 µg/mL (≈ 13.2 µM)
Minimal inhibitory concentration MIC [17]: 64 µg/mL (≈ 26.5 µM)
Minimal inhibitory concentration MIC [18]: 64 µg/mL (≈ 26.5 µM)
Peptide MIC during treatment with erythromycin [19, 33]: 4 µg/mL
Peptide MIC during treatment with erythromycin [19, 34]: 4 µg/mL
Peptide MIC during treatment with erythromycin [19, 35]: 2 µg/mL
Peptide MIC during treatment with erythromycin [19, 36]: 0 µg/mL
Peptide MIC during treatment with linezolid [19, 29]: 4 µg/mL
Peptide MIC during treatment with linezolid [19, 30]: 0 µg/mL
Peptide MIC during treatment with linezolid ([19]; linezolid […] (Conc./MIC 1/2)): 1 µg/mL
Peptide MIC during treatment with linezolid ([19]; linezolid […] (Conc./MIC 1/4)): 2 µg/mL
Peptide MIC during treatment with vancomycin [19, 31]: 2 µg/mL
Peptide MIC during treatment with vancomycin [19, 32]: 1 µg/mL
Peptide MIC during treatment with vancomycin ([19]; vancomycin […] (Conc./MIC 1/4)): 2 µg/mL
Peptide MIC during treatment with vancomycin ([19]; vancomycin […] (Conc./MIC 1/8)): 2 µg/mL
Peptide MIC during treatment with antibiotic [20, 33]: 4 µg/mL
Peptide MIC during treatment with antibiotic [20, 34]: 4 µg/mL
Peptide MIC during treatment with antibiotic [20, 35]: 2 µg/mL
Peptide MIC during treatment with antibiotic [20, 36]: 0 µg/mL
Peptide MIC during treatment with antibiotic ([20]; linezolid 32 μg/ml (Conc./MIC 1/8)): 4 µg/mL
Peptide MIC during treatment with antibiotic ([20]; linezolid 64 μg/ml (Conc./MIC 1/4)): 2 µg/mL
Peptide MIC during treatment with antibiotic ([20]; linezolid […] (Conc./MIC 1)): 0 µg/mL
Peptide MIC during treatment with antibiotic ([20]; linezolid […] (Conc./MIC 1/2)): 1 µg/mL
Peptide MIC during treatment with antibiotic [20, 31]: 0.25 µg/mL
Peptide MIC during treatment with antibiotic [20, 32]: 0 µg/mL
Peptide MIC during treatment with antibiotic ([20]; vancomycin […] (Conc./MIC 1/4)): 0.5 µg/mL
Peptide MIC during treatment with antibiotic ([20]; vancomycin […] (Conc./MIC 1/8)): 2 µg/mL
